Assay results from patent publication US10317417B2, “Buccal cell diagnosis of arrhythmogenic cardiomyopathy (ACM)” (Beth Israel Deaconess Medical Center, Inc., priority 2015, dated 2019).

Test system: cultured buccal mucosa cells from ACM patients and gene carriers
Assay: Immunostaining of cultured buccal mucosa cells after incubation with SB216763
Assay type: cell-based, human
Parameters: dose or concentration left out as unconfirmed
Settings: cultured buccal mucosa cells from ACM patients and unaffected gene carriers, confocal microscopy
Experimental: The oral cavity was first rinsed thoroughly with antiseptic mouthwash. Buccal mucosa cells were collected with a sterile toothbrush which was lightly scraped on the inside of both cheeks for ˜2 minutes. The oral cavity was washed with 15 ml of sterile saline which was collected in a centrifuge tube. The toothbrush itself was washed in an additional 10 ml of saline. The same process was repeated one or more times. The resultant cell suspension was centrifuged at 3000 g for 5 minutes. The pellet was washed once in sterile PBS, re-centrifuged and subsequently re-suspended in 20 ml of PBS supplemented with 5% penicillin/streptomycin and 7 mM fungizone for 30 minutes. The cells were then washed twice in PBS, reconstituted in KGM™-CD chemically defined keratinocyte growth medium (LONZA) and seeded on matrigel-coated chamber slides, where they were maintained at 37° C., 5% CO2 for up to 7 days. Selected cultures were incubated with SB216763 ([…]) for 24 hours prior to immunostaining. Buccal mucosa cultures were washed in PBS, fixed in 4% paraformaldehyde and, after being washed 3 additional times in PBS, were immunostained as described above with mouse monoclonal anti-plakoglobin (Sigma) or mouse monoclonal anti-Cx43 (Millipore) primary antibodies. All immunostained preparations were imaged at 40× using a ZEISS inverted confocal microscope.

Q: How did the Cx43 signal distribution turn out when `Cn1cc(C2=C(c3ccc(Cl)cc3Cl)C(=O)NC2=O)c2ccccc21` [SB216763] was run?
A: normalized

Q: What about the plakoglobin signal distribution of the same compound?
A: normalized
